Experimental findings from publication PMC7957188, “An antitumor peptide RS17‐targeted CD47, design, synthesis, and antitumor activity” (Cancer Medicine, 2021) are described below.

Where no end group is shown, it is not given here. The star is where a group is joined. FITC = O=C1OC2(c3ccc(O)cc3Oc3cc(O)ccc32)c2ccc(NC(=S)*)cc21; Acp = not defined here Where only a bound is given, the exact number is not on record here.

The subject of one series is SCC‐13 cells. The series is described as follows: Flow cytometry binding of FITC‐RS17 to SCC‐13 cells. As to conditions: 1 μM FITC‐RS17, 1 h, 37℃. It counts as cell-based, human. On the procedure:
(§1) The peptides were synthesized using the solid‐phase peptide synthesis method. Amino acid activation phase included 1‐hydroxybenzotriazole (HOBt) and N, N′‐diisopropylcarbodiimide (DIC). Deprotection agent was piperidine (PIP). Following synthesis, the peptides were cleaved with 90% of trifluoroacetic acid (TFA) and precipitated with ether to obtain the crude product. The crude peptides were purified by HPLC and the molecular weight were measured by online ESI‐MS, respectively. Besides, the FITC‐RS17 peptide was prepared by coupling with FITC through the Acp active group to RS17. The product was purified and analyzed by the same process.
(§2) The SCC‐13 human cutaneous squamous cell carcinoma cell lines, HepG2 human HCC cell line, THP‐1 human mononuclear cell line, and mouse mononuclear/macrophage cell lines were from Chinese Academy of Sciences in Shanghai. SCC‐13 and HepG2 cells were incubated in DMEM medium which contains 100 μg/ml of streptomycin and 50 μg/ml of penicillin. The medium also contains 10% of fetal bovine serum from Gibco Life Technologies. […]
(§3) The binding of RS17 to the CD47‐expressing cells were assessed by the Flow cytometry technique. […]. ^14 In brief, HepG2 and SCC‐13 cells were collected and adjusted to 3 × 10^6 cells/ml. […] After washing with PBS, the cells were analyzed with a flow cytometer (Miltenyi Biotec GmbH). Data were analyzed with FlowJo 7.6.
(Flow cytometry measures light scatter and fluorescence of single cells or particles in a stream.)

In a further series the test system is HepG2 cells. Nature of the series: Flow cytometry binding of FITC‐RS17 to HepG2 cells. It counts as cell-based, human. As to conditions: 1 μM FITC‐RS17, 1 h, 37℃. On the procedure: as §1, §2, §3
In a further series the target is T1, CD47 protein (Homo sapiens, UniProt Q08722).
T1 construct: CD47 protein was from Cloud‐Clone; purchased Cloud‐Clone
Nature of the series: Microscale thermophoresis (MST), RS17–CD47 interaction. Format: binding. As to conditions: Monolith NT.115, NT‐Analysis, Cy5-labeled CD47 mixed 1:1 with diluted peptide, 5 min, room temperature, read-out: dissociation constant (Kd) for RS17 and CD47 interaction. On the procedure:
CD47 protein was from Cloud‐Clone. The CD47 protein was dissolved in a buffer solution without primary amine compounds and exchanged by mixed column A. The CD47 protein was stained by Cy5 fluorescent dye (Ruixin Biological Technology) and after staining, the labeled protein was purified by column B. Finally, the RS17 peptides were diluted and mixed with the labeled protein in a 1:1 ratio. After incubating at room temperature for 5 min, samples were detected and data were processed by Monolith NT.115 and NT‐Analysis, which were from NanoTemper.
Microscale thermophoresis (MST) is an effective technique that accurately quantitates the interaction between two molecules. It depends on the thermo‐swimming movement of a molecule, which is a directional transfer of the molecule across a temperature gradient dependent on molecular properties such as molecular size, electric charge, and conformation. ^39 A Monolith NT.115 instrument was used as a platform to perform the MST experiment and the results were analyzed using the accompanying NT‐Analysis software.

Another series has as its system RFP HepG2 cells. As to conditions: in vivo, sc, 20 mg/kg. On the procedure: RFP (CMV‐Puro) lentiviral particles were purchased from HanBio. 5 × 10^4 HepG2 in DMEM medium were seeded into each well of a 12‐well plate in presence of 10% FBS. A 6 μg/ml of Polybrene and 20 MOI lentivirus were added to each well. The cells were resuspended in DMEM medium in presence of 8 μg/ml puromycin after a 48‐h transfection. DMEM medium with 8 μg/ml of puromycin was replaced every 2 days for 1 week. RFP‐positive HepG2 cells were then acquired by flow cytometry. Polybrene and puromycin were from Sigma. Nude mice were subcutaneously injected with 2 × 10^7 RFP HepG2 cells into the ventral side and separated into three groups (5 per group). One of the groups was selected as the experimental group and received a daily subcutaneous injection with RS17 (20 mg/kg), the other two groups represented a positive control and a blank control and received a daily subcutaneous injection with B6H12 (20 mg/kg) and PBS, respectively. Daily injections were administered for 28 days. Body weight, tumor volume, and imaging on day 28 were carried out described above.

Series [1] is described as follows: Body weight / tolerability in nude mice, ex vivo experiment. As to conditions: 7 days. On the procedure: Female Balb/c nude mice (4–5 weeks) were bred in the absence of pathogens to assess the antitumor activity of indirect therapies in vivo.
RFP‐positive HepG2 cells at a concentration of 2 × 10^7/ml were first co‐incubated for 1 h with 1 μM B6H12 (positive control) or RS17. The nude mice were separated into three groups (5 per group) and subcutaneously injected with 200 μl RFP‐positive HepG2 cells into the ventral side. Normal feeding lasted for 7 days. Body weight and tumor volume were measured in nude mice. Tumor dimensions were measured in two directions with and the formula of ½ × a × b ^2 (a, length; b, width) was used to calculate tumor volume. The intravital fluorescence intensity of the tumors were detected with PerkinElmer IVIS Spectrum on day 7.

For series [2], the target named is CD47 on SCC-13 and HepG2 tumor cells (human (endogenous in SCC-13 and HepG2)) (UniProt Q08722).
CD47 on SCC-13 and HepG2 tumor cells (human (endogenous in SCC-13 and HepG2)), sequence (Q08722 19-323): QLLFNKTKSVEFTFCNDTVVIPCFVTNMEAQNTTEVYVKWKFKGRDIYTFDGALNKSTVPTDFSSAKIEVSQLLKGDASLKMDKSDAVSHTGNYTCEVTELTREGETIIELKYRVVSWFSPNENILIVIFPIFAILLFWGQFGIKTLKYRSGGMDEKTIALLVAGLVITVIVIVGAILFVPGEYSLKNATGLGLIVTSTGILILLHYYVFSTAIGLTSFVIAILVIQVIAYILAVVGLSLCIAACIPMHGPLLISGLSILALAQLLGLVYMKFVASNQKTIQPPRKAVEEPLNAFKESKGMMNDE

For “FITC‐RS17: prepared by coupling with FITC through the Acp active group to RS17 ({FITC-Acp}-RRYKQDGGWSHWSPWSS; reading uncertain)”, the “binding of FITC‐RS17 to SCC‐13 cells (in words)” value with SCC‐13 cells is “effectively bound”. In the series with HepG2 cells, the “binding of FITC‐RS17 to HepG2 cells (in words)” value is listed as “effectively bound”.

For orientation: Kd means the free concentration of one partner at which half of the binding sites on the other are occupied at equilibrium, for simple one-to-one binding. On to RRYKQDGGWSHWSPWSS [RS17], for which the Kd on CD47 protein turned out to be 3.86 ± 0.789 nM. The “inhibition of tumor growth” value in the series with RFP HepG2 cells was over 50%. In series [1], the tolerability result was “well tolerated”.

B1: RS17 peptide (peptide)
peptide: RRYKQDGGWSHWSPWSS
For B1, the in vivo: growth of HepG2 xenografts in nude mice with daily subcutaneous RS17 (20 mg/kg) for 28 days; pair blocked: CD47 on HepG2 and SIRPα on mouse macrophages in series [2] was over 50%.
